Common to all, as to format: cell-based
In test [1] the test system is Enterococcus faecium ATCC 700221 (VRE). The test can be described thus: Broth microdilution MIC, E. faecium ATCC 700221 (VRE). As to conditions: broth microdilution, 37° C., 20 hours; for MIC: Enterococcus faecium, read-out: MIC E. faecium ATCC 700221 (VRE). Further details: MIC E. faecium ATCC 700221 (VRE): unit: ug/mL. In a few lines: (§1)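 Broth microdilution in strain-specific test medium with ~5.0×10^5 cfu/ml inoculum, 1% DMSO and two-fold compound dilutions from 64 to 0.0625 μg/ml. Plates were held 20 hours at 37° C in ambient air. S. pneumoniae colonies were grown beforehand on blood agar in 5% CO2.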

The subject of test [2] is Enterococcus faecalis ATCC 29212. Kind of test: Broth microdilution MIC, E. faecalis ATCC 29212. Particulars: ATCC29212, broth microdilution, 37° C., 20 hours, read-out: MIC E. faecalis ATCC 29212. In a few lines:
as §1
For orientation: In broth dilution the organism is exposed to a series of concentrations in liquid medium.

Test [3] has as its system Escherichia coli ATCC 25922. The test can be described thus: Broth microdilution MIC, E. coli ATCC 25922 (MHIIB w & w/o 4 mM EDTA). Particulars: broth microdilution, 37° C., 20 hours; for MIC: Escherichia coli, ATCC25922, without EDTA, read-out: MIC E. coli ATCC 25922; for MIC E. coli ATCC 25922 + 4 mM EDTA: with 4 mM EDTA. Put shortly: as §1
Test [4] has as its system Staphylococcus aureus ATCC 29213 (MSSA). Kind of test: Broth microdilution MIC, S. aureus ATCC 29213 (MSSA). Particulars: broth microdilution, 37° C., 20 hours, read-out: MIC S. aureus ATCC 29213 (MSSA). Put shortly:
as §1

The test system of test [5] is Staphylococcus aureus NRS384 (MRSA). The test can be described thus: Broth microdilution MIC, S. aureus NRS384 (MRSA). As to conditions: Staphylococcus aureus; broth microdilution, 37° C., 20 hours; read-out: MIC NRS 384 (MRSA). In a few lines:
as §1

The test system of test [6] is Bacillus subtilis ATCC 6633. The test can be described thus: Broth microdilution MIC, B. subtilis ATCC 6633. As to conditions: ATCC6633, broth microdilution, 37° C., 20 hours, read-out: MIC B. subtilis ATCC 6633. Put shortly: as §1
The test system of test [7] is Streptococcus pneumoniae ATCC 49619. The test can be described thus: Broth microdilution MIC, S. pneumoniae ATCC 49619. As to conditions: ATCC49619, broth microdilution, 37° C., 20 hours, read-out: MIC S. pneumoniae ATCC 49619. In a few lines:
as §1

Values after ≈ are worked out from the molar mass of the structure shown.

In general, MIC refers to the lowest concentration that inhibits growth of the organism. In the case of `CN1CC(Cn2ncc3nc(NCc4ccc(Cl)c(Cl)c4)[nH]c(=O)c32)CC1=O` (centres unmarked) [Compound 159, 5-((3,4-dichlorobenzyl)amino)-1-((1-methyl-5-oxopyrrolidin-3-yl)methyl)-1H-pyrazolo[4,3-d]pyrimidin-7(6H)-one], the MIC in test [1] is 2 µg/mL (≈ 4.75 µM); in test [2], 8 µg/mL (≈ 19 µM); in test [3], above 64 µg/mL; in test [4] it was 8 µg/mL (≈ 19 µM); in test [5], 8 µg/mL (≈ 19 µM); in test [6], 2 µg/mL (≈ 4.75 µM). Moreover, the MIC in test [7] turned out to be 2 µg/mL (≈ 4.75 µM). For the same molecule, the “MIC E. coli ATCC 25922 + 4 mM EDTA” value in test [3] was above 64 µg/mL.

As to `CC(CO)n1ncc2nc(NCc3ccc(Cl)c(Cl)c3)[nH]c(=O)c21` (centres unmarked) [Compound 228, 5-((3,4-dichlorobenzyl)amino)-1-(1-hydroxypropan-2-yl)-1H-pyrazolo[4,3-d]pyrimidin-7(6H)-one], the MIC is 8 µg/mL (≈ 21.7 µM) in test [1]; 16 µg/mL (≈ 43.5 µM) in test [2]; above 64 µg/mL in test [3]; 16 µg/mL (≈ 43.5 µM) in test [4]; 8 µg/mL (≈ 21.7 µM) in test [5]; 4 µg/mL (≈ 10.9 µM) in test [6]. In test [7], the MIC worked out at 8 µg/mL (≈ 21.7 µM). Besides, in test [3], the “MIC E. coli ATCC 25922 + 4 mM EDTA” value came to 64 µg/mL.

`O=C(O)COCCOCCn1ncc2nc(NCc3ccc(Cl)c(Cl)c3)[nH]c(=O)c21` [Compound 187, 2-(2-(2-(5-((3,4-dichlorobenzyl)amino)-7-oxo-6,7-dihydro-1H-pyrazolo[4,3-d]pyrimidin-1-yl)ethoxy)ethoxy)acetic acid]: the MIC was 64 µg/mL (≈ 140 µM) in test [1]; 64 µg/mL (≈ 140 µM) in test [2]; above 64 µg/mL in test [3]; above 64 µg/mL in test [4]; above 64 µg/mL in test [5]; 64 µg/mL (≈ 140 µM) in test [6]. The MIC in test [7] is above 64 µg/mL. Also, the “MIC E. coli ATCC 25922 + 4 mM EDTA” value in test [3] was above 64 µg/mL.

Consider `Cn1ncc2nc(NCc3cn[nH]n3)[nH]c(=O)c21` [Compound 17, 5-(((2H-1,2,3-triazol-4-yl)methyl)amino)-1-methyl-1H-pyrazolo[4,3-d]pyrimidin-7(6H)-one], for which the MIC in test [1], in test [2], in test [3], in test [4], in test [5] and in test [6] was above 64 µg/mL each time. Further, in test [7], the MIC is above 64 µg/mL. Also, in test [3], the “MIC E. coli ATCC 25922 + 4 mM EDTA” value was above 64 µg/mL.

For the molecule `Cn1ncc2nc(NCc3ccccc3Cl)[nH]c(=O)c21` [Compound 27, 5-((2-Chlorobenzyl)amino)-1-methyl-1H-pyrazolo[4,3-d]pyrimidin-7(6H)-one], the MIC in test [1], in test [2], in test [3], in test [4], in test [5] and in test [6] was above 64 µg/mL throughout. The MIC in test [7] is above 64 µg/mL. Besides, the “MIC E. coli ATCC 25922 + 4 mM EDTA” value in test [3] was found to be 64 µg/mL.

Consider `Cn1ccnc1Cn1ncc2nc(NCc3ccc(Cl)c(Cl)c3)[nH]c(=O)c21` [Compound 97, 5-((3,4-Dichlorobenzyl)amino)-1-((1-methyl-1H-imidazol-2-yl)methyl)-1H-pyrazolo[4,3-d]pyrimidin-7(6H)-one], for which the MIC in test [1] was 8 µg/mL (≈ 19.8 µM); in test [2] it was above 64 µg/mL; in test [3], above 64 µg/mL; in test [4], 8 µg/mL (≈ 19.8 µM); in test [5], 8 µg/mL (≈ 19.8 µM); in test [6] it was 8 µg/mL (≈ 19.8 µM). The MIC in test [7] was 4 µg/mL (≈ 9.89 µM). Further, the “MIC E. coli ATCC 25922 + 4 mM EDTA” value in test [3] was above 64 µg/mL.

Consider `Cl.O=c1[nH]c(NCc2ccc(Cl)c(Cl)c2)nc2cnn(CCN3C[C@@H]4C[C@H]3CO4)c12` [Compound 68, 1-(2-((1 S,4S)-2-oxa-5-azabicyclo[2.2.1]heptan-5-yl)ethyl)-5-((3,4-dichlorobenzyl)amino)-1H-pyrazolo[4,3-d]pyrimidin-7(6H)-one hydrochloride], for which the “MIC E. faecium ATCC 700221 (VRE)” value in test [1] is recorded as 4/2. Moreover, the MIC in test [2] was 4 µg/mL; in test [3] it was above 64 µg/mL; in test [4], 4 µg/mL; in test [5], 4 µg/mL; in test [6] it was 1 µg/mL; in test [7], 4 µg/mL. In addition, the “MIC E. coli ATCC 25922 + 4 mM EDTA” value in test [3] is 64 µg/mL.
